Numbered stars: 1 amine (or outer) side, 2 acyl side, 3 side chain; on linkers, the order of the positions; unused ones are H or OH. Bridge positions count the residues as written; N and C are the ends. Square brackets hold non-standard residues; d marks the D form. Peptide text beside a SMILES is read from it. CH2 = C([*:1])[*:2]

The source of these data is PMC8672774, “Discovery of cell active macrocyclic peptides with on-target inhibition of KRAS signaling” (Chemical Science, 2021).

In data set [1] the target is T1, GDP-loaded KRAS^G12D (Homo sapiens, UniProt P01116, G12D).
T1 construct: (AAs 1 to 169 plus a 4xGly motif appended to the N-; His-SUMO (N, cleaved yes); made in house; host or cells: E. coli Rosetta 2 (DE3)
As to the kind of experiment: TR-FRET competitive binding assay using KRAS G12D loaded with GDP. To be noted: competition with 500 nM FAM-labeled tracer; relative binding, EC50 right-shifted compared to KD. (TR-FRET usually uses a lanthanide donor and a delayed reading to cut background.)

The subject of data set [2] is pERK in KRAS^G12C, KRAS^G12V and KRAS^G12D cancer lines. As to the kind of experiment: Cellular phospho-ERK assay in panel of KRAS mutant cancer lines. In kind it is cell-based. As to the method: For the latter, this included HEK293 cells (Fig. 4C), a cell line that has no dependency on RAS for cell proliferation.[21]
Ratio of pERK vs total ERK in
Penicillin/Streptomycin (Gibco 15140-122).
A375 cells were seeded at a
membranes were measured by LDH release assay.
according to manufacturer’s protocol.

The subject of data set [3] is extended cell panel incl. HEK293 cells. Kind of data set: CellTiter-Glo cell viability assay (extended cell panel). Format: cell-based. From the text: Table S2: Cell culture conditions and seeding densities for 5-day CellTiter- Glo® cell viability assay on extended 1 6 cell panel.
Cell Line Vendor Catalog Description Complete g rowth m e d i um Seeding density […]
Capan-1 ATCC HTB-79 pancreas, adenocarcinoma IMDM+20%FBS 7 00
CFPAC-1 ATCC CRL-19 18 pancreas, ductal adenocarcinoma; cystic fibrosis IMDM+10%FBS 6 00 […]
MiaPaCa-2 ATCC CRL-14 20 pancreas, pancreatic Carcinoma DMEM+10%FBS 6 00 NCI-H358 ATCC CRL-58 07 lung, non-small cell lung cancer,bronchioalveolar RPMI1640+10%FBS […]
Panc 10.05 ATCC CRL-25 47 pancreas, adenocarcinoma RPMI1640 + 20 Units/ml human […]
SK-CO-1 ATCC HTB-39 colon, colorectal adenocarcinoma EMEM+10%FBS 3 00 […]
SW4 80 ATCC CCL-22 8 colon, adenocarcinoma Leibovitz's L-15
Prism software (GraphPad, San Diego, CA). […]
according to the manufacturer’s protoco l. […]
(§1) time of 0.15 second per well.
(§2) AMG510 was prepared internally from
Cells were cultured and seeded […]
the manufacturer’s protocol. […]
integration time of 0.1 second per well. […]
indicated peptides the next day.
On the technique in general: Cellular ATP, detected with luciferase, serves as a proxy for viable cell number.

Data set [4] deals with AsPC-1, SK-CO-1, NCI-H358 and NCI-H2122 cells. As to the kind of experiment: CellTiter-Glo 2.0 cell viability assay, KRAS mutant lines. In kind it is cell-based. To be noted: AsPC-1, SK-CO-1, NCI-H358, NCI-H2122; 120 h. Here is the method: (§3) Prism software (GraphPad, San Diego, CA).
(§4) according to the manufacturer’s protoco l.
as §1, §2
(§5) Cells were cultured and seeded

Data set [5] concerns A375 cells. Kind of data set: CellTiter-Glo 2.0 cell viability assay, A375. In kind it is cell-based. As to conditions: 120 h. As to the method:
as §3, §4, §1, §2, §5

The subject of data set [6] is MAPK and PI3K signaling in SK-MEL-28 cells (BRAF^V600E). Kind of data set: Western blot of MAPK and PI3K signaling in SK-MEL-28 cells. In kind it is cell-based. On the technique in general: Immunoblotting shows a protein as a band on a membrane.
Data set [7] deals with EGF receptor activation. As to the kind of experiment: Western blot of EGF receptor activation in AsPC-1 cells. In kind it is cell-based.
Data set [8] deals with TNFα-stimulated NFκB signaling. As to the kind of experiment: Western blot of TNFα-stimulated NFκB signaling in AsPC-1 cells. In kind it is cell-based.
The subject of data set [9] is pERK and pAKT in AsPC-1 cells. As to the kind of experiment: Western blot of KRAS signaling (pERK, pAKT) in AsPC-1 cells. Format: cell-based. To be noted: 1 hour and 16 hour time-points.
For data set [10], the system named is rat mast cells. As to the kind of experiment: Ex vivo rat mast cell degranulation and histamine release assay.
The subject of data set [11] is MAPK and PI3K signaling in A375 cells (BRAF^V600E). Kind of data set: Western blot of MAPK and PI3K signaling in A375 cells. Format: cell-based.
Data set [12] relates to A375 and SK-MEL-28 cells vs AsPC-1 cells. Kind of data set: Live-cell fluorescence imaging of FAM-labelled peptides. Format: cell-based. To be noted: A375 and SK-MEL-28 compared to AsPC-1.
In data set [13] the test system is pERK in NCI-H358 (heterozygous KRAS^G12C) cells. As to the kind of experiment: Cellular phospho-ERK assay in NCI-H358 cells with and without EGF. As to conditions: 20 nM EGF stimulation.

For the compound `CC[C@H](C)[C@@H]1NC(=O)[C@H](Cc2ccc(O)cc2)NC(=O)[C@H](C)NC(=O)[C@@H]2CCCN2C(=O)[C@H](NC(=O)[C@H](CCCNC(=N)N)NC(=O)[C@H](CCCNC(=N)N)NC(C)=O)CSCSC[C@@H](C(=O)N[C@@H](CCCNC(=N)N)C(=O)N[C@@H](CCCNC(=N)N)C(N)=O)NC(=O)[C@H](C(C)C)NC(=O)[C@@H]2CCCN2C(=O)[C@H](CC(=O)O)NC(=O)[C@H](Cc2ccc(O)cc2)NC(=O)[C@H](CO)NC1=O` [Compound 6] (Ac-RR[dC]PAYISYDPVCRR-NH2; linker 3-13 via CH2), the EC50 (in general, the concentration at which the effect is half-maximal) in data set [1] was above 48.1 µM.

`CC[C@H](C)[C@@H]1NC(=O)[C@H](Cc2ccc(O)cc2)NC(=O)[C@H](CC(C)C)NC(=O)[C@@H]2CCCN2C(=O)[C@H](NC(=O)[C@@H](CCCNC(=N)N)NC(=O)[C@@H](CCCNC(=N)N)NC(=O)[C@@H](CCCNC(=N)N)NC(=O)[C@@H](CCCNC(=N)N)NC(=O)[C@H](CCCCN=[N+]=[N-])NC(C)=O)CSCSC[C@@H](C(=O)N[C@H](CCCNC(=N)N)C(=O)N[C@H](CCCNC(=N)N)C(=O)N[C@H](CCCNC(=N)N)C(=O)N[C@H](CCCNC(=N)N)C(N)=O)NC(=O)[C@H](C(C)C)NC(=O)[C@@H]2CCCN2C(=O)[C@H](CC(=O)O)NC(=O)[C@H](Cc2ccc(O)cc2)NC(=O)[C@](C)(CO)NC1=O` [MP-3995]: the “pERK inhibition across KRAS mutant cancer lines” value in data set [2] was “low micromolar range”. Moreover, in data set [3] (HEK293, no dependency on RAS), the “sensitivity of HEK293 cell proliferation” value is recorded as “insensitive”. Further, in [3] (extended panel, 120 h), the “number of KRAS mutant cell lines with inhibited proliferation” value is given as 8 out of 13. In data set [4], the “inhibition of cell proliferation in KRAS mutant lines” value is “inhibitory effects on cell proliferation”. In addition, the “cell growth inhibition in A375” value in [5] was “lack of cell growth inhibition”.

On to `CC[C@H](C)[C@@H]1NC(=O)[C@H](Cc2ccc(O)cc2)NC(=O)[C@H](CC(C)C)NC(=O)[C@@H]2CCCN2C(=O)[C@H](NC(=O)[C@@H](CCCNC(=N)N)NC(=O)[C@@H](CCCNC(=N)N)NC(=O)[C@@H](CCCNC(=N)N)NC(=O)[C@@H](CCCNC(=N)N)NC(=O)[C@H](CCCCN=[N+]=[N-])NC(C)=O)CSCSC[C@@H](C(=O)N[C@H](CCCNC(=N)N)C(=O)N[C@H](CCCNC(=N)N)C(=O)N[C@H](CCCNC(=N)N)C(=O)N[C@H](CCCNC(=N)N)C(N)=O)NC(=O)[C@H](C(C)C)NC(=O)[C@@H]2CCCN2C(=O)[C@H](CC(=O)O)NC(=O)[C@H](Cc2ccc(O)cc2)NC(=O)[C@H](CO)NC1=O` [MP-4090], for which the “inhibition of MAPK signaling in SK-MEL-28” value in data set [6] is “inactive”. Besides, the “effect on upstream EGF receptor activation” value in data set [7] is given as “no effect”. For the same compound, the “effect on TNFα-stimulated NFκB signaling” value in data set [8] is reported as “no effect”. Further, the “inhibition of KRAS signaling (pERK, pAKT) by Western blot” value in data set [9] was “display cell-based inhibition”. Also, in [10] (ex vivo, rat mast cells), the “activation of mast cell degranulation (histamine release), in words” value is given as “highly potent activators of MCD”. Besides, in data set [10] (lowest concentration at which histamine release was observed, rat peritoneal mast cells, 30 min), the “rMCD histamine release threshold” value was at least 0.14 µM. Also, the “inhibition of MAPK signaling in A375” value in [11] is “inactive”.

For `CC[C@@H](C)[C@H]1NC(=O)[C@@H](Cc2ccc(O)cc2)NC(=O)[C@@H](CC(C)C)NC(=O)[C@H]2CCCN2C(=O)[C@H](NC(=O)[C@@H](CCCNC(=N)N)NC(=O)[C@@H](CCCNC(=N)N)NC(=O)[C@@H](CCCNC(=N)N)NC(=O)[C@@H](CCCNC(=N)N)NC(C)=O)CSCSC[C@H](C(=O)N[C@H](CCCNC(=N)N)C(=O)N[C@H](CCCNC(=N)N)C(=O)N[C@H](CCCNC(=N)N)C(=O)N[C@H](CCCNC(=N)N)C(N)=O)NC(=O)[C@@H](C(C)C)NC(=O)[C@H]2CCCN2C(=O)[C@@H](CC(=O)O)NC(=O)[C@@H](Cc2ccc(O)cc2)NC(=O)[C@@H](CO)NC1=O` [MP-4956, Ac-rrrr-cyclo(c(methylene)plyisydpvc)-rrrr-NH2], the “inhibition of cell proliferation in KRAS mutant lines” value in data set [4] is “minimal inhibitory effects”. Further, the “inhibition of KRAS signaling (pERK, pAKT) by Western blot” value in [9] is listed as “showed no activity”.

Regarding `CC[C@H](C)[C@@H]1NC(=O)[C@H](Cc2ccc(O)cc2)NC(=O)[C@H](CC(C)C)NC(=O)[C@@H]2CCCN2C(=O)[C@H](NC(=O)[C@@H](CCCNC(=N)N)NC(=O)[C@@H](CCCNC(=N)N)NC(=O)[C@@H](CCCNC(=N)N)NC(=O)[C@@H](CCCNC(=N)N)NC(=O)c2ccc3c(c2)C(=O)OC32c3ccc(O)cc3Oc3cc(O)ccc32)CSCSC[C@@H](C(=O)N[C@H](CCCNC(=N)N)C(=O)N[C@H](CCCNC(=N)N)C(=O)N[C@H](CCCNC(=N)N)C(=O)N[C@H](CCCNC(=N)N)C(N)=O)NC(=O)[C@H](C(C)C)NC(=O)[C@@H]2CCCN2C(=O)[C@H](CC(=O)O)NC(=O)[C@H](Cc2ccc(O)cc2)NC(=O)[C@H](CO)NC1=O` [MP-8996], in data set [12], the “cell entry of FAM-labeled peptide in BRAF mutant cells” value was “roughly equivalent amounts compared to AsPC-1 cells”.

On to `C=CC(=O)N1CCN(c2nc(OC[C@@H]3CCCN3C)nc3c2CCN(c2cccc4cccc(C)c24)C3)C[C@@H]1CC#N` [MRTX-1257], for which the “potency shift in pERK in the presence of EGF, NCI-H358” value in data set [13] is recorded as 2 fold.
